This note sets out measurements from ChEMBL document CHEMBL5360590, “Phyllospongianes A-E, Dinorscalarane Sesterterpenes from the Marine Sponge Phyllospongia foliascens” (J Nat Prod, 2023).

The structures appear in SMILES notation. Converted amounts (≈) assume the structure as drawn. Some results are limits rather than exact numbers.

For one assay, the system named is MDA-MB-231. Briefly: Cytotoxicity against human MDA-MB-231 cells assessed as reduction in cell viability by CCK-8 assay. Format: functional, cell-based. For orientation: Tetrazolium dyes change colour on reduction, which living cells bring about.
Broadly, the IC50 is the point on the concentration scale where inhibition reaches its midpoint. `CC[C@@]1(C)CCC[C@]2(C)[C@H]3C[C@H](OC(=O)C[C@H](O)C(C)C)[C@]4(C)C(C=O)=CC[C@H]4[C@]3(C)CC[C@@H]12`: the IC50 was determined as 13.2 µM.
On the same count and under the same terms, the value for `CC[C@@]1(C)CCC[C@]2(C)[C@H]3C[C@H](OC(=O)CCC(C)C)[C@]4(C)C(C=O)=CC[C@H]4[C@]3(C)CC[C@@H]12` was 32.3 µM; that for `CCCCC(=O)O[C@H]1C[C@@H]2[C@@]3(C)CCC[C@](C)(CC)[C@@H]3CC[C@@]2(C)[C@@H]2CC=C(C(=O)O)[C@@]12C` was greater than 50 µM.

System in another assay: not listed separately
Nature of the assay: Cytotoxicity against human Enzalutamide-resistant LNCaP C4-2 cells assessed as reduction in cell viability by CCK-8 assay. The assay is classed as functional, cell-based.
Take `CC[C@@]1(C)CCC[C@]2(C)[C@H]3C[C@H](OC(=O)C[C@H](O)C(C)C)[C@]4(C)C(C=O)=CC[C@H]4[C@]3(C)CC[C@@H]12`: the IC50 was 700 nM.
On the same count and under the same terms, the value for `CC[C@@]1(C)CCC[C@]2(C)[C@H]3C[C@H](OC(=O)CCC(C)C)[C@]4(C)C(C=O)=CC[C@H]4[C@]3(C)CC[C@@H]12` was 1700 nM.
On to `CCCCC(=O)O[C@H]1C[C@@H]2[C@@]3(C)CCC[C@](C)(CC)[C@@H]3CC[C@@]2(C)[C@@H]2CC=C(C(=O)O)[C@@]12C`, for which the IC50 is 11200 nM.

The test system of the next assay is Vibrio parahaemolyticus. Nature of the assay: Antibacterial activity against Vibrio parahaemolyticus assessed as bacterial growth inhibition. The assay is classed as functional.
In general, MIC refers to the lowest concentration that inhibits growth of the organism. For `CC[C@@]1(C)CCC[C@]2(C)[C@H]3C[C@H](OC(=O)C[C@H](O)C(C)C)[C@]4(C)C(C=O)=CC[C@H]4[C@]3(C)CC[C@@H]12`, the MIC is greater than 64 µg/mL.
On to `CC[C@@]1(C)CCC[C@]2(C)[C@H]3C[C@H](OC(=O)CCC(C)C)[C@]4(C)C(C=O)=CC[C@H]4[C@]3(C)CC[C@@H]12`, for which the MIC was 2 µg/mL (≈ 4.38 µM).
Same read-out and setting: the value for `CCCCC(=O)O[C@H]1C[C@@H]2[C@@]3(C)CCC[C@](C)(CC)[C@@H]3CC[C@@]2(C)[C@@H]2CC=C(C(=O)O)[C@@]12C` was 16 µg/mL (≈ 34.9 µM).

The test system of a further assay is MCF7. Nature of the assay: Cytotoxicity against human MCF7 cells assessed as reduction in cell viability by CCK-8 assay. Format: functional, cell-based.
`CC[C@@]1(C)CCC[C@]2(C)[C@H]3C[C@H](OC(=O)C[C@H](O)C(C)C)[C@]4(C)C(C=O)=CC[C@H]4[C@]3(C)CC[C@@H]12`: the IC50 is 1.1 µM.
Same read-out and setting: the value for `CC[C@@]1(C)CCC[C@]2(C)[C@H]3C[C@H](OC(=O)CCC(C)C)[C@]4(C)C(C=O)=CC[C@H]4[C@]3(C)CC[C@@H]12` was 3.5 µM.
The same measure, in the same setting: for `CCCCC(=O)O[C@H]1C[C@@H]2[C@@]3(C)CCC[C@](C)(CC)[C@@H]3CC[C@@]2(C)[C@@H]2CC=C(C(=O)O)[C@@]12C` the value was 15.3 µM.

In a further assay the test system is HT-29. Nature of the assay: Cytotoxicity against human HT-29 cells assessed as reduction in cell viability by CCK-8 assay. The assay is classed as functional, cell-based.
Regarding `CC[C@@]1(C)CCC[C@]2(C)[C@H]3C[C@H](OC(=O)C[C@H](O)C(C)C)[C@]4(C)C(C=O)=CC[C@H]4[C@]3(C)CC[C@@H]12`, the IC50 was 1.2 µM.
On the same count and under the same terms, for `CC[C@@]1(C)CCC[C@]2(C)[C@H]3C[C@H](OC(=O)CCC(C)C)[C@]4(C)C(C=O)=CC[C@H]4[C@]3(C)CC[C@@H]12` the value was 4.7 µM; for `CCCCC(=O)O[C@H]1C[C@@H]2[C@@]3(C)CCC[C@](C)(CC)[C@@H]3CC[C@@]2(C)[C@@H]2CC=C(C(=O)O)[C@@]12C`, 18 µM.

In the next assay the test system is Enterococcus faecalis. Nature of the assay: Antibacterial activity against Enterococcus faecalis assessed as bacterial growth inhibition. Format: functional.
As for `CC[C@@]1(C)CCC[C@]2(C)[C@H]3C[C@H](OC(=O)C[C@H](O)C(C)C)[C@]4(C)C(C=O)=CC[C@H]4[C@]3(C)CC[C@@H]12`, the MIC was greater than 64 µg/mL.
For the compound `CC[C@@]1(C)CCC[C@]2(C)[C@H]3C[C@H](OC(=O)CCC(C)C)[C@]4(C)C(C=O)=CC[C@H]4[C@]3(C)CC[C@@H]12`, the MIC came to 4 µg/mL (≈ 8.76 µM).
On the same count and under the same terms, the value for `CCCCC(=O)O[C@H]1C[C@@H]2[C@@]3(C)CCC[C@](C)(CC)[C@@H]3CC[C@@]2(C)[C@@H]2CC=C(C(=O)O)[C@@]12C` was 16 µg/mL (≈ 34.9 µM).

The next assay has as its system Escherichia coli. Nature of the assay: Antibacterial activity against Escherichia coli assessed as bacterial growth inhibition. Format: functional.
In the case of `CC[C@@]1(C)CCC[C@]2(C)[C@H]3C[C@H](OC(=O)C[C@H](O)C(C)C)[C@]4(C)C(C=O)=CC[C@H]4[C@]3(C)CC[C@@H]12`, the MIC is greater than 64 µg/mL.
The same measure, in the same setting: for `CC[C@@]1(C)CCC[C@]2(C)[C@H]3C[C@H](OC(=O)CCC(C)C)[C@]4(C)C(C=O)=CC[C@H]4[C@]3(C)CC[C@@H]12` the value was 8 µg/mL (≈ 17.5 µM); for `CCCCC(=O)O[C@H]1C[C@@H]2[C@@]3(C)CCC[C@](C)(CC)[C@@H]3CC[C@@]2(C)[C@@H]2CC=C(C(=O)O)[C@@]12C`, 32 µg/mL (≈ 69.8 µM).

The next assay has as its system HepG2. Briefly: Cytotoxicity against human HepG2 cells assessed as reduction in cell viability by CCK-8 assay. The assay is classed as functional, cell-based.
In the case of `CC[C@@]1(C)CCC[C@]2(C)[C@H]3C[C@H](OC(=O)C[C@H](O)C(C)C)[C@]4(C)C(C=O)=CC[C@H]4[C@]3(C)CC[C@@H]12`, the IC50 worked out at 9.6 µM.
`CC[C@@]1(C)CCC[C@]2(C)[C@H]3C[C@H](OC(=O)CCC(C)C)[C@]4(C)C(C=O)=CC[C@H]4[C@]3(C)CC[C@@H]12`: the IC50 is 19.3 µM.
Consider `CCCCC(=O)O[C@H]1C[C@@H]2[C@@]3(C)CCC[C@](C)(CC)[C@@H]3CC[C@@]2(C)[C@@H]2CC=C(C(=O)O)[C@@]12C`, for which the IC50 is greater than 50 µM.

A further assay relates to NCI-H460. Briefly: Cytotoxicity against human NCI-H460 cells assessed as reduction in cell viability by CCK-8 assay. The assay is classed as functional, cell-based.
For the compound `CC[C@@]1(C)CCC[C@]2(C)[C@H]3C[C@H](OC(=O)C[C@H](O)C(C)C)[C@]4(C)C(C=O)=CC[C@H]4[C@]3(C)CC[C@@H]12`, the concentration for half-maximal inhibition (IC50) came out at 2 µM.
`CC[C@@]1(C)CCC[C@]2(C)[C@H]3C[C@H](OC(=O)CCC(C)C)[C@]4(C)C(C=O)=CC[C@H]4[C@]3(C)CC[C@@H]12`: the half-inhibitory concentration (IC50) amounted to 7.2 µM.
On the same count and under the same terms, for `CCCCC(=O)O[C@H]1C[C@@H]2[C@@]3(C)CCC[C@](C)(CC)[C@@H]3CC[C@@]2(C)[C@@H]2CC=C(C(=O)O)[C@@]12C` the value was 13 µM.

For another assay, the system named is Bacillus subtilis. Nature of the assay: Antibacterial activity against Bacillus subtilis assessed as bacterial growth inhibition. The assay is classed as functional.
As for `CC[C@@]1(C)CCC[C@]2(C)[C@H]3C[C@H](OC(=O)C[C@H](O)C(C)C)[C@]4(C)C(C=O)=CC[C@H]4[C@]3(C)CC[C@@H]12`, the MIC stood at 8 µg/mL (≈ 16.9 µM).
The same measure, in the same setting: the value for `CC[C@@]1(C)CCC[C@]2(C)[C@H]3C[C@H](OC(=O)CCC(C)C)[C@]4(C)C(C=O)=CC[C@H]4[C@]3(C)CC[C@@H]12` was 1 µg/mL (≈ 2.19 µM).
On the same count and under the same terms, the value for `CCCCC(=O)O[C@H]1C[C@@H]2[C@@]3(C)CCC[C@](C)(CC)[C@@H]3CC[C@@]2(C)[C@@H]2CC=C(C(=O)O)[C@@]12C` was 16 µg/mL (≈ 34.9 µM).

The test system of the next assay is Pseudomonas aeruginosa. Briefly: Antibacterial activity against Pseudomonas aeruginosa assessed as bacterial growth inhibition. Format: functional.
As to `CC[C@@]1(C)CCC[C@]2(C)[C@H]3C[C@H](OC(=O)C[C@H](O)C(C)C)[C@]4(C)C(C=O)=CC[C@H]4[C@]3(C)CC[C@@H]12`, the MIC is greater than 64 µg/mL.
Regarding `CC[C@@]1(C)CCC[C@]2(C)[C@H]3C[C@H](OC(=O)CCC(C)C)[C@]4(C)C(C=O)=CC[C@H]4[C@]3(C)CC[C@@H]12`, the MIC stood at 4 µg/mL (≈ 8.76 µM).
Still for that read-out and setting: for `CCCCC(=O)O[C@H]1C[C@@H]2[C@@]3(C)CCC[C@](C)(CC)[C@@H]3CC[C@@]2(C)[C@@H]2CC=C(C(=O)O)[C@@]12C` the value was 32 µg/mL (≈ 69.8 µM).

The test system of the next assay is Vibrio vulnificus. Briefly: Antibacterial activity against Vibrio vulnificus assessed as bacterial growth inhibition. The assay is classed as functional.
Turning to `CC[C@@]1(C)CCC[C@]2(C)[C@H]3C[C@H](OC(=O)C[C@H](O)C(C)C)[C@]4(C)C(C=O)=CC[C@H]4[C@]3(C)CC[C@@H]12`, the MIC is greater than 64 µg/mL.
For the compound `CC[C@@]1(C)CCC[C@]2(C)[C@H]3C[C@H](OC(=O)CCC(C)C)[C@]4(C)C(C=O)=CC[C@H]4[C@]3(C)CC[C@@H]12`, the MIC came to 2 µg/mL (≈ 4.38 µM).
Still for that read-out and setting: for `CCCCC(=O)O[C@H]1C[C@@H]2[C@@]3(C)CCC[C@](C)(CC)[C@@H]3CC[C@@]2(C)[C@@H]2CC=C(C(=O)O)[C@@]12C` the value was 64 µg/mL (≈ 140 µM).
